Laboratory results reported in paper PMC8333425, “Discovery of a dual Ras and ARF6 inhibitor from a GPCR endocytosis screen” (Nature Communications, 2021).
Where “and” joins values, the source holds several entries; their conditions need not be identical. Equal values may be shown once.

Experiments:
[1] = molecular target: T1, ARF1 (Homo sapiens, UniProt P84077); test: GST-GGA3-PBD pull-down of AT1R-mediated HA-ARF1 activation; type: cell-based; details: for ARF1-GTP/ARF1: GST-GGA3-PBD, listed as Comp 21
T1 construct: expressed in transfected cells; host or cells: HEK293SL
T1 sequence (P84077 whole entry): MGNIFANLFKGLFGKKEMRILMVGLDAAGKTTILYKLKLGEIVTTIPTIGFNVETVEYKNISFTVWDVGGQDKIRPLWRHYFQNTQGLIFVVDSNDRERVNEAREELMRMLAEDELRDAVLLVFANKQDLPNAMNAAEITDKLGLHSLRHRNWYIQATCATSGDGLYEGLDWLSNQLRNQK
Method: Activation of ARF1, ARF6, Ras, and Rho were assessed by using GST pull-down assays. HEK293SL cells were transiently transfected with 3 µg AT1R-flag only (Ras and Rho) or along with 500 ng HA-ARF6 (ARF6) or HA-ARF1 (ARF1). Forty-eight hours later, the HEK293 or MDA-MB-231 cells were serum-starved for 4 h with DMEM containing 20 mM HEPES then pretreated with DMSO or Rasarfin (50 µM) for 30 min. Cells were then stimulated with 1 µM AngII or 100 ng/ml EGF for 0 and 2 min. Cells were then washed once with ice-cold PBS and lysed for 30 min at 4 °C in 300 µl of lysis buffer (pH 7.5, 50 mM Tris-HCl, 140 mM NaCl, 5 mM MgCl2, 10% glycerol (v/v), 1% Nonidet P-40 (v/v), 1 mM dithiothreitol) supplemented with protease inhibitors (1 mM phenylmethyl-sulfonyl fluoride (PMSF), 10 µg/ml leupeptin, 5 µg/ml aprotinin, 1 µg/ml pepstatin A) and phosphatase inhibitors (20 mM NaF, 0.025 mM pervanadate). The samples were cleared by centrifugation and 30 µl (cell lysates) was kept for assessing total protein contents. The remaining was transferred to fresh tubes with 20 µg of either GST, GST-GGA3-PBD, GST-Raf1-RBD or GST-Rhotekin-RBD coupled to glutathione resin and rotated for 1–2 h at 4 °C. Beads were washed twice with lysis buffer and proteins were eluted in 25 μl 2x laemmli buffer by heating at 65 °C for 15 min. Proteins were resolved on 14% SDS-PAGE, transferred to nitrocellulose membranes, and immunoblotted for HA, Ras, RhoA, H-Ras, or ARF6. ImageLab 5.2 software was used to quantify the digital blots as fold of the amount of pulled down protein over total protein. Uncropped coomassie gels and immunoblots are provided in the Source Data file.

[2] = test system: PKC; test: PKC BRET sensor, AT1R-mediated; type: cell-based, human
Method: HEK293SL cells were seeded at a density of 7.5 × 10^5 cells per 100-mm dish and 24 h later, transiently transfected as such. For receptor internalization experiments, cells were transfected with 0.12 μg AT1R-RlucII, B2R-RlucII, or β2AR-RlucII and 0.48 μg of either rGFP-CAAX (to assess removal from the PM) or rGFP-FYVE (to assess accumulation in the endosomes). For β-arrestin recruitment assays, cells were transfected with 0.48 μg of receptor-YFP along with 0.12 μg of β-arrestin-RlucII. For β-arrestin/AP-2 binding experiments, cells were transfected with 1 μg Flag-AT1R, 1 μg β2-Adaptin-YFP, and 0.12 μg β-arrestin2-RlucII. […] For kinetics of β-arrestin recruitment or β-arrestin binding to receptor and AP-2 experiments, cells were serum starved for 30 min, pretreated with 21 (50 µM) or Barbadin (100 µM) for 30 min, stimulated with 100 nM AngII or 1 µM BK and BRET signals were monitored at indicated times using a Victor X Light plate reader (PerkinElmer). […] The BRET ratio was determined by calculating the ratio of the light emitted by YFP over the light emitted by the RlucII. […] For the kinetics of GTPase and PI3K/Akt activation, cells were serum starved, pretreated with 21 (50 µM) or Wortmannin (200 nM) for 30 min, stimulated with ligand (100 nM AngII or 100 ng/ml EGF) and BRET signals were monitored at indicated times. […]

## CC(C)C(=O)N1CCN(c2ccc(NC(=O)c3cc4ccccc4o3)cc2Cl)CC1 [Compound 21]
[1]; 50 μM
  effect on AT1R-dependent ARF1 activation: no effect
[1]; AngII
  ARF1-GTP/ARF1: 0.143 and 0.2667 and 0.2223
[1]; Ctrl
  ARF1-GTP/ARF1: 0.07407 and 0.04303 and 0.06878
[2]; 50 μM
  AT1R-mediated PKC activation: did not inhibit AT1R-mediated PKC activation
[2]; listed as Comp 21
  PKC BRET sensor signal (S_Fig.4b), single experiments: 0.07767 and 0.069 and 0.0815
